# Data taken from EP2958919B1, “DIHYDROPTERIDINONES I” (Boehringer Ingelheim International GmbH, priority 2013, dated 2014).
# Key:
# Aβ42 = Aβ42 cellular assay in H4 neuroglioma cells stably expressing human APP695 (electrochemiluminescence, Meso Scale Discovery); type: cell-based; details: 22 hours incubation, supernatant
# Method: (§1) Cells were plated out to near confluency. The compounds to be tested were received as 10 mM stocks in 100% DMSO. A dilution series was initially generated in 100% DMSO and then diluted 200-fold in cell culture media such that the tested concentration range was 30 µM to 0.1 nM and the final DMSO concentration was 0.5%. The diluted compounds were incubated with the cells for 22 hours in an incubator at 37°C and 5% CO2. Aβ42 as well as Aβ total levels were then measured post-incubation from the supernatant of the cells. Aβ42 levels were determined using a specific electrochemiluminescence assay provided by Meso Scale Discovery (Catalog # L21CA-1) according to the manufacturer's protocol. Aβ total levels were likewise determined using a specific electrochemiluminescence assay provided by Meso Scale Discovery (Catalog # L21ZA-1) according to the manufacturer's protocol.
# (§2) In order to absolutely define the described compounds as modulators of γ-Secretase as opposed to simply inhibitors of γ-Secretase, measurements of not only Aβ42 but also Aβ total are performed.
# Aβ total = Aβ total cellular assay in H4 neuroglioma cells stably expressing human APP695 (electrochemiluminescence), used for the ratio Aβ total IC50 / Aβ42 IC50; type: cell-based; details: higher ratio = more specific inhibition of Aβ42
# Method: as §1, §2
Compound,IC50 (Aβ42) [nM],Ratio Aβ(total)/Aβ42 (Aβ total)
CCN1C(=O)C2CCCCCN2c2nc(Nc3ccc(-n4cnc(C)c4)cc3)ncc21 (centres unmarked) [Example 5-6],704,43
CCc1nc(Nc2ccc(-n3cnc(C)c3)c(OC)c2)nc2c1NC(=O)C1CC(OC)CCN21 (racemic) [Example 20],223,30
CC(C)Cc1nc(Nc2ccc(-c3cnn(C)c3)cc2)nc2c1N(C)C(=O)C1CCCN21 (centres unmarked) [Example 34],928,30
CCc1nc(Nc2ccc(-n3cnc(C)c3)c(OC)c2)nc2c1N(C)C(=O)[C@@H]1C[C@@H](OC)CN21 [Example 14],97,67
CCc1nc(Nc2ccc(-n3cnc(C)c3)c(C#N)c2)nc2c1NC(=O)[C@@H]1C[C@@H](OC)CN21 [Example 16],222,33
CCc1nc(Nc2ccc(-n3cnc(C)c3)c(OC)c2)nc2c1NC(=O)[C@@H]1C[C@@H](OC)CN21 [Example 17],299,68
CCc1nc(Nc2ccc(-n3cnc(C)c3)c(OC)c2)nc2c1NC(=O)C1CCCN21 (centres unmarked) [Example 7],96,98
CCc1nc(Nc2ccc(-n3cnc(C)c3)c(OC)c2)nc2c1N(C)C(=O)[C@H]1[C@H](c3ccc(F)cc3)CCN21 (racemic) [Example 23],70,90
CCc1nc(Nc2ccc(-n3cnc(C)c3)c(OC)c2)nc2c1N(C)C(=O)C1CCCCN21 (centres unmarked) [Example 36],64,86
CCc1nc(Nc2ccc(-n3cnc(C)c3)c(OC)c2)nc2c1N(C)C(=O)[C@]1(C)C[C@@H](OC)CN21 [Example 25],145,73
CCCN1C(=O)C2CCCCCN2c2nc(Nc3ccc(-c4ccnc(C)c4)cc3)ncc21 (centres unmarked) [Example 5],720,14
CCN1C(=O)C2CCCCCN2c2nc(Nc3ccc(-n4cnc(C)c4)cc3OC)ncc21 (centres unmarked) [Example 5-7],11400,3
CCN1C(=O)C2CCCCCN2c2nc(Nc3ccc(-c4cnc(C)s4)c(OC)c3)ncc21 (centres unmarked) [Example 5-5],711,13
CCc1nc(Nc2ccc(-n3cnc(C)c3)c(C#N)c2)nc2c1N(C)C(=O)[C@@H]1C[C@@H](OC)CN21 [Example 15],145,36
CCc1nc(Nc2ccc(-n3cnc(C)c3)c(OC)c2)nc2c1NC(=O)[C@H]1[C@@H](c3ccc(F)cc3)CCN21 (racemic) [Example 22],818,71
COc1cc(Nc2ncc3c(n2)N2CCCC2C(=O)N3C)ccc1-n1ncnc1C (centres unmarked) [Example 12-4],754,>39
CCN1C(=O)C2CCCCCN2c2nc(Nc3ccc(-c4ccnc(C)c4)cc3)ncc21 (centres unmarked) [Example 3],398,17
CCc1nc(Nc2ccc(-n3cnc(C)c3)c(OC)c2)nc2c1N(C)C(=O)C1CC(OC)CCN21 (racemic) [Example 21],105,98
CCc1nc(Nc2ccc(-n3cnc(C)c3)c(OC)c2)nc2c1N(CCOC)C(=O)[C@@H]1C[C@@H](OC)CN21 [Example 19-1],201,131
CCN1C(=O)C2CCCCCN2c2nc(Nc3ccc(-n4ccnc4)c(OC)c3)ncc21 (centres unmarked) [Example 5-2],175,64
CCc1nc(Nc2ccc(-c3cnc(C)o3)nc2)nc2c1N(C)C(=O)C1CCCN21 (centres unmarked) [Example 9],1230,>24
CCc1nc(Nc2ccc(-n3cnc(C)c3)c(OC)c2)nc2c1N(C)C(=O)C1COCCN21 (centres unmarked) [Example 29],231,76
COc1cc(Nc2nc(CC(C)C)c3c(n2)N2CCCC2C(=O)N3C)ccc1-n1cnc(C)c1 (centres unmarked) [Example 33],76,171
CCc1nc(Nc2ccc(-c3cnc(C)o3)c(OC)c2)nc2c1N(C)C(=O)C1CCCN21 (centres unmarked) [Example 10],149,189
COc1cc(Nc2ncc3c(n2)N2CCCC2C(=O)N3C)ccc1-n1cnc(C)c1 (centres unmarked) [Example 11],97,>310

Compound,IC50 (Aβ42) [nM],Ratio Aβ(total)/Aβ42 (Aβ total)
COc1cc(Nc2ncc3c(n2)N2CCCC2C(=O)N3C)ccc1-n1cnc(C)n1 (centres unmarked) [Example 12-1],2940,>10
CCc1nc(Nc2ccc(-n3cnc(C)c3)c(OC)c2)nc2c1N(C)C(=O)C1CCCN21 (centres unmarked) [Example 6],84,96
Cc1cn(-c2ccc(Nc3nc(CC(C)C)c4c(n3)N3CCCC3C(=O)N4C)cc2C#N)cn1 (centres unmarked) [Example 35],126,71
COc1cc(Nc2nc(C(C)C)c3c(n2)N2CCCC2C(=O)N3C)ccc1-n1cnc(C)c1 (centres unmarked) [Example 32],134,66
CCc1nc(Nc2ccc(-n3cnc(C)c3)c(OC)c2)nc2c1NC(=O)C1COCCN21 (centres unmarked) [Example 28],272,29
CCc1nc(Nc2ccc(-c3ccnc(C)c3)cc2)nc2c1N(C)C(=O)C1CCCN21 (centres unmarked) [Example 8],293,62
CCc1nc(Nc2ccc(-n3cnc(C)c3)c(OC)c2)nc2c1N(C)C(=O)[C@@]1(C)C[C@@H](OC)CN21 [Example 24],166,181
COc1cc(Nc2ncc3c(n2)N2CCCOCC2C(=O)N3)ccc1-n1cnc(C)c1 (centres unmarked) [Example 30],312,96
CCCN1C(=O)C2CCCCCN2c2nc(Nc3ccc(-n4cnc(C)c4)c(OC)c3)ncc21 (centres unmarked) [Example 4],113,44
CN1C(=O)C2CCCN2c2nc(Nc3ccc(-c4cnn(C)c4)nc3)ncc21 (centres unmarked) [Example 12-2],5750,>5
Cc1cn(-c2ccc(Nc3ncc4c(n3)N3CCCC3C(=O)N4C)cc2F)cn1 (centres unmarked) [Example 12-3],1100,>27
CCc1nc(Nc2ccc(-c3cnc(C)o3)c(OC)c2)nc2c1NC(=O)[C@@H]1C[C@@H](OC)CN21 [Example 19],364,82
COc1cc(Nc2nc(SC)c3c(n2)N2CCCCC2C(=O)N3C)ccc1-n1cnc(C)c1 (centres unmarked) [Example 13],420,14
COc1cc(Nc2ncc3c(n2)N2CCCCCC2C(=O)N3C(C)C)ccc1-n1cnc(C)c1 (centres unmarked) [Example 5-1],72,109
CCc1nc(Nc2ccc(-n3cnc(C)c3)c(OC)c2)nc2c1NC(=O)[C@@]1(C)[C@@H](OC)CN21 (racemic) [Example 27],360,70
CCc1nc(Nc2ccc(-c3cnc(C)o3)c(OC)c2)nc2c1N(C)C(=O)[C@@H]1C[C@@H](OC)CN21 [Example 18],140,215
COc1cc(Nc2ncc3c(n2)N2CCCCCC2C(=O)N3C)ccc1-n1cnc(C)c1 (centres unmarked) [Example 2],97,59
COc1cc(Nc2nc(CC(C)C)c3c(n2)N2C[C@H](OC)C[C@]2(C)C(=O)N3C)ccc1-n1cnc(C)c1 [Example 26],63,253
CCN1C(=O)C2CCCCCN2c2nc(Nc3cnc(-n4cnc(C)c4)c(OC)c3)ncc21 (centres unmarked) [Example 5-4],172,>175
COc1cc(Nc2nc(C(C)C)c3c(n2)N2CCN(C(=O)OC(C)(C)C)CC2C(=O)N3C)ccc1-n1cnc(C)c1 (centres unmarked) [Example 37],320,12
CCN1C(=O)C2CCCCCN2c2nc(Nc3ccc(-n4cnc(C)n4)c(OC)c3)ncc21 (centres unmarked) [Example 5-3],265,101
CCN1C(=O)C2CCCCCN2c2nc(Nc3ccc(-n4cnc(C)c4)c(OC)c3)ncc21 (centres unmarked) [Example 1],48,127
COc1cc(Nc2ncc3c(n2)N2CCCOC2(C)C(=O)N3C)ccc1-n1cnc(C)c1 (centres unmarked) [Example 31],540,55
COc1cc(Nc2ncc3c(n2)N2CCCC2(C)C(=O)N3C)ccc1-n1cnc(C)c1 (centres unmarked) [Example 12],160,147
